Series [1] relates to whole blood cells from BD patients. Briefly: MPR™ (Membrane Potential Ratio) test, agents added to the test buffer in vitro. Format: cell-based, human. As to conditions: 1 mM Li alone in EtOH test buffer, whole blood of BD patients.
Description: The present inventor developed a ratiometric assay to measure the ratio of the membrane potential called Membrane Potential Ratio (MPR™), using a reference buffer and a test buffer. […] The reference buffer may contain NaCl, CaCl2 and glucose at physiological concentrations. The buffering agent HEPES was also added to the buffer to maintain the pH. […] The test buffer may contain K^+ or no K^+. The membrane potentials were measured in both the buffers and the ratio of the MP in the test buffer to the MP in the reference buffer was designated the “Membrane Potential Ratio” (MPR™).
The membrane potentials of whole blood cells can be measured using two different buffers in a plate reader. The mean MPR™ value is the ratio between the membrane potential of a patient's cells in the test buffer as the numerator and that in the reference buffer as the denominator (for example, determined by statistical analysis of multiple measurements, using the ANOVA and the multiple statistical regression analysis).
As mentioned herein, MPR™ is the ratio between the membrane potential (MP) in the test buffer and that in the reference buffer. In these experiments, the reference buffer contained NaCl, CaCl2, glucose and HEPES, whereas the test buffer contained ethyl alcohol (EtOH) in addition to NaCl, CaCl2, glucose and HEPES. Lithium, inositol and carbachol were added to the test buffer in these experiments.
Whole blood samples were obtained from BD patients, and a portion from each blood sample was suspended in the test buffer for 20 minutes, and a portion from each blood sample was suspended in the reference buffer for 20 minutes. After this incubation, the samples were centrifuged for five minutes, drained, then re-suspended in their respective buffer (test or reference buffer). These samples were then distributed in 96 well plates, and tested in a plate reader (FLx 800 manufactured by BioTek).
Another series concerns BD patients. As to conditions: cited from earlier work.
The conditions of series [2]: blood plasma; Freudenreich et al. 2009; cited from earlier work.
A further series has as its system BD patient. Briefly: Clinical case observation of tolerability (Example 4). The format is in vivo, human. The conditions noted are these: very low dosage, given for anxiety; person with BD. The text has this:
At the time of their first blood draw, they reported having been off of their medications for BD for one month, but had not become clinically symptomatic, and tested in the BD range (“(Before)” of FIG. 4). When retested, they had been taking lithium, quetiapine, and mirtazapine for some time and had been back at work. […] Subsequently, they reported anxiety, occurring while they continued taking lithium, quetiapine, and mirtazapine. They thought they might be experiencing a return of bipolar symptomatology, but this was determined to possibly be situational instead. They had some awareness of issues with their fiancé and this awareness was “bolstered” by the notion that their MPR™ test had been in the normal range on their medication regimen not so many months before. […] They wanted a medication to help their through what they were experiencing, but could not be given benzodiazepines because of a history of difficulty with alcohol. Very low dosage perphenazine was given, in keeping with its old indication for neurotic anxiety.

SMILES strings stand for the structures.

For the molecule `[Li]` [Li, lithium], the “MPR™ value” in series [1] (Example 1, FIG. 1) is reported as 0.814; in series [1] (Example 2, FIG. 2), 0.757; in series [1] (Example 3, FIG. 3), 0.780. In the series with BD patients (at therapeutic concentration of 1.2 mM), the “side effects at the therapeutic level” value was “nausea, diarrhea, dizziness, muscle weakness, fatigue, and a dazed feeling”. In the series with BD patients (lithium level in BD therapy), the therapeutic level entry is given as “around 1.2 mM”. Also, the toxic level entry in the series with BD patients (lithium level in BD therapy) was “about 2 mM”.

`CN1CCN(C2=Nc3cc(Cl)ccc3Nc3ccccc32)CC1` [clozapine]: in series [2], the “presently used therapeutic levels” value is 200 to 1000 ng/mL.

Consider `OCCN1CCN(CCCN2c3ccccc3Sc3ccc(Cl)cc32)CC1` [perphenazine], for which, in the series with BD patient, the “Side effect leading to discontinuation” value is “blurred vision”.

The values above are taken from patent US20190302102A1, “COMBINATION THERAPIES FOR TREATING BIPOLAR DISORDER, AND METHODS FOR USING THE SAME” (PsychNostics, LLC, priority 2016, published 2019).
